Activity calls are given as the source filed them. The calls are words filed in the database; no cut-off is given here.
What was measured:
[1] = biological target: T1, Falcipain 2 (Plasmodium falciparum) (UniProt Q9N6S8); test: Binding affinity to N-terminal 6His-tagged recombinant Plasmodium falciparum FP2 expressed in Escherichia coli M15 assessed as association rate constant (Kon) by surface plasmon resonance analysis
T1 sequence (whole entry): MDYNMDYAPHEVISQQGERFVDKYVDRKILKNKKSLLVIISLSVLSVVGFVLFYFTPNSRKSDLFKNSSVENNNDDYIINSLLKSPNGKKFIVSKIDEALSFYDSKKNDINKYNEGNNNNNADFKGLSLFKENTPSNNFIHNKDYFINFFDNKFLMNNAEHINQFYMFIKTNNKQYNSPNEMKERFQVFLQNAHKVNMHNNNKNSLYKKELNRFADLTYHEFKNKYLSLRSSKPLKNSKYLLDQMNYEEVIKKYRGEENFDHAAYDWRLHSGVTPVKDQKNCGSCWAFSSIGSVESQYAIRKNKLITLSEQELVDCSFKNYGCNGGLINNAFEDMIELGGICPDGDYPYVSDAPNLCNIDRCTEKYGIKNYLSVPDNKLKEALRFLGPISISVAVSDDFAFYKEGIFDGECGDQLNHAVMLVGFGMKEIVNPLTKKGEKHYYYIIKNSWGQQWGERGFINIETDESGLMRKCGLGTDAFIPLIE

[2] = system: Plasmodium falciparum; test: Antimalarial activity against synchronized-ring stage chloroquine-sensitive Plasmodium falciparum 3D7 assessed as reduction in parasitemia measured upto 60 hrs post-treatment by Giemsa staining based light microscopic analysis (reference value: 3.9 %); format: functional; parameters: scale not given: the % may be the effect or the level left
[3] = Toxicity in mouse assessed as latency to fall off the rotating rod by measuring neuromuscular coordination index at 200 mg/kg by rotarod apparatus (reference value: 12.45 +/- 1.48 ); format: organism-based; conditions: in vivo
[4] = system: Plasmodium falciparum; test: Antimalarial activity against chloroquine-resistant Plasmodium falciparum K1 assessed as inhibition of parasite growth by lactate dehydrogenase assay; format: functional, organism-based
[5] = system: Plasmodium falciparum; test: Antimalarial activity against synchronized-ring stage chloroquine-sensitive Plasmodium falciparum 3D7 assessed as inhibition of parasite growth by measuring pyknotic appearance measured upto 60 hrs by Giemsa staining based light microscopic analysis; format: functional, organism-based
[6] = Toxicity against mouse assessed as effect on complete blood count at 100 to 200 mg/kg measured after 7 days by automated hematology analyzer; format: organism-based; conditions: in vivo, 168 h, dose 100-200 mg/kg, time 7 day
[7] = Toxicity in mouse assessed as effect on food intake at 100 to 200 mg/kg measured for 7 days; format: organism-based; conditions: in vivo, 168 h, dose 100-200 mg/kg, time 7 day
[8] = biological target: T2, Falcipain-3 (Plasmodium falciparum 3D7) (UniProt Q8IIL0); test: Inhibition of N-terminal 6His-tagged recombinant Plasmodium falciparum FP3 expressed in Escherichia coli M15 using Z-Phe-Arg-AMC as substrate at 10 uM measured after 30 mins by microplate reader analysis relative to control
T2 sequence (whole entry): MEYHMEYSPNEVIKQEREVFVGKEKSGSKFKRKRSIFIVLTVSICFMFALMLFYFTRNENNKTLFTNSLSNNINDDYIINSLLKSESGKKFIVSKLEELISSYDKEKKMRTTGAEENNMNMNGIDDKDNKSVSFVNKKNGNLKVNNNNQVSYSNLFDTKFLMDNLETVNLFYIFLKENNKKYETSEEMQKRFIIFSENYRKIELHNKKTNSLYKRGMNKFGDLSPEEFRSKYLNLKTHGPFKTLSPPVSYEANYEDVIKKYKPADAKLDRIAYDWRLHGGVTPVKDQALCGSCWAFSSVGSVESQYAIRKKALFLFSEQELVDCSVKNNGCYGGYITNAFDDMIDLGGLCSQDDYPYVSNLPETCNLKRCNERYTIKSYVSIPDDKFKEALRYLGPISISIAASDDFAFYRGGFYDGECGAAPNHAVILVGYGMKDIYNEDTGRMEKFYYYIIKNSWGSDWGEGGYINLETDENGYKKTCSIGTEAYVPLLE

[9] = system: Plasmodium falciparum; test: Antimalarial activity against synchronized ring stage Plasmodium falciparum assessed as increase in undigested hemoglobin level at 1 to 4 uM incubated for 20 hrs by absorbance based analysis; format: functional, organism-based; conditions: dose 1-4 µM
[10] = Toxicity in mouse assessed as grooming time at 200 mg/kg by open field test (reference value: 10.91 +/- 2.01 sec); format: organism-based; conditions: in vivo, 2 s
[11] = system: Plasmodium falciparum; test: Antimalarial activity against synchronized-schizont stage chloroquine-sensitive Plasmodium falciparum 3D7 assessed as delay in progression measured upto 60 hrs by Giemsa staining based light microscopic analysis; format: functional, organism-based
[12] = system: Plasmodium falciparum; test: Antimalarial activity against trophozoite stage chloroquine-sensitive Plasmodium falciparum 3D7 assessed as growth inhibition incubated with compound for 6 hrs and measured 72 hrs post invasion by SYBR Green dye based analysis; format: functional, organism-based
[13] = biological target: T1, Falcipain 2 (Plasmodium falciparum); test: Binding affinity to N-terminal 6His-tagged recombinant Plasmodium falciparum FP2 expressed in Escherichia coli M15 assessed as dissociation rate constant (Koff) by surface plasmon resonance analysis
[14] = system: Plasmodium falciparum; test: Antimalarial activity against ring stage chloroquine-sensitive Plasmodium falciparum 3D7 assessed as growth inhibition incubated with compound for 6 hrs and measured 72 hrs post invasion by SYBR Green dye based analysis; format: functional, organism-based
[15] = system: Plasmodium falciparum; test: Antimalarial activity against synchronized-trophozoite stage chloroquine-sensitive Plasmodium falciparum 3D7 assessed as inhibition of parasite growth by measuring pyknotic appearance measured upto 60 hrs by Giemsa staining based light microscopic analysis; format: functional, organism-based
[16] = system: Plasmodium falciparum; test: Antimalarial activity against synchronized-ring stage chloroquine-sensitive Plasmodium falciparum 3D7 assessed as halt in parasite multiplication by measuring appearance of pyknotic bodies measured after 36 hrs by Giemsa staining based light microscopic analysis; format: functional, organism-based
[17] = biological target: T3, Falcipain 2 (Plasmodium falciparum, UniProt Q9N6S8); test: Inhibition of N-terminal 6His-tagged recombinant Plasmodium falciparum FP2 expressed in Escherichia coli M15 using Z-Phe-Arg-AMC as substrate measured after 30 mins by microplate reader analysis
T3 sequence (Q9N6S8 whole entry): T1 sequence (whole entry)

[18] = system: Plasmodium falciparum; test: Antimalarial activity against ring stage chloroquine-sensitive Plasmodium falciparum 3D7 assessed as growth inhibition incubated for 72 hrs by SYBR Green dye based analysis; format: functional, organism-based; conditions: 3D7, 72 h
[19] = Selectivity index, ratio of IC50 for cytotoxicity against CHO cells to IC50 for antimalarial activity against chloroquine-sensitive Plasmodium falciparum NF54; format: toxicity, cell-based; conditions: hamster, CHO cells versus Plasmodium falciparum NF54; read-out: Ratio IC50
[20] = system: Plasmodium berghei; test: Antimalarial activity against Plasmodium berghei ANKA infected in BALB/c mouse assessed as increase in survival at 50 to 100 mg/kg, ip p preadministered with phenylhydrazine for 3 days followed by compound administration and measured after 5 days; format: functional, organism-based; conditions: dose 50-100 mg/kg, time 5.0 day
[21] = system: Plasmodium falciparum; test: Antimalarial activity against synchronized-ring stage chloroquine-sensitive Plasmodium falciparum 3D7 assessed as growth progression defect from ring to schizont stage measured upto 60 hrs post-treatment by Giemsa staining based light microscopic analysis; format: functional, organism-based
[22] = Toxicity in mouse assessed as cell apoptosis in liver at 100 to 200 mg/kg measured after 7 days by hematoxylin and eosin staining based analysis; format: organism-based; conditions: in vivo, 168 h, dose 100-200 mg/kg, time 7 day
[23] = biological target: T2, Falcipain-3 (Plasmodium falciparum 3D7); test: Inhibition of N-terminal 6His-tagged recombinant Plasmodium falciparum FP3 expressed in Escherichia coli M15 using Z-Phe-Arg-AMC as substrate at 5 uM measured after 30 mins by microplate reader analysis relative to control
[24] = Stability of the compound in simulated intestinal fluid at pH 6.8 at 1 uM measured after 120 mins by LC-MS/MS analysis; format: ADME; conditions: simulated gi fluid, pH 6.8, 2 h

O=C(Cn1cc(CN2CCN(c3ccnc4cc(Cl)ccc34)CC2)nn1)Nc1cccc([N+](=O)[O-])c1
K [1]: 680 M⁻¹ s⁻¹
Activity [2]: 1.03%
Activity_index [3]: 10.75
IC50 [4]: 1.89 µM
Activity [5]: Active
Activity [6]: Non-Toxic
Activity [7]: Non-Toxic
inhibition [8]: 28.5%
Activity [9]: Active
Time [10]: 14.31 s
Activity [11]: Active
IC50 [12]: 1.96 µM
K [13]: 0.097 s⁻¹
IC50 [14]: 10.2 µM
Activity [15]: Active
Activity [16]: Active
IC50 [17]: 8.1 µM
IC50 [18]: 0.96 µM
selectivity ratio [19]: 160
Activity [20]: Active
Activity [21]: Active
Activity [22]: Non-Toxic
inhibition [23]: 27.3%
Stability [24]: Stable

Source: ChEMBL document CHEMBL5523667, “Blood-stage antimalarial activity, favourable metabolic stability and in vivo toxicity of novel piperazine linked 7-chloroquinoline-triazole conjugates” (Eur J Med Chem, 2024)
